# Data as given in patent US20040161757A1, “Use of acetyl-coa carboxylase for identifying compounds that have an insecticidal effect” (priority 2000, published 2004).
# System: peach aphid Myzus persicae
# Assay: Impairment of lipid neogenesis: 14C-acetate feeding by the sachet method, lipid extract separated by TLC
# Type: in vivo
# Text: Peach aphid Myzus persicae larvae or adults were fed for two days with nutrient solutions with and without one of the identified ACCase inhibitors, using the sachet method (Nauen et al. 1996).
# Thereafter, the animals were collected and homogenized in organic solvent using a pestle and mortar. The organic phase was cleansed of water-soluble constituents by repeatedly extracting it by shaking with aqueous solution, and the solvent was then evaporated. The pellet which remained was taken up in a little solvent and separated by thin-layer chromatography (TLC). The lipids which were separated were stained with amido black. ^14C-acetate which was incorporated into the lipids was detected by autoradiography after an exposure time of 2-3 days. To quantify the ^14C-incorporation into lipids, the bands in question were scraped out after staining, dissolved, and the activity was determined in a scintillation counter. […] Thus, no de novo lipid synthesis from acetate has taken place. […] It can be seen clearly that increasing inhibitor concentrations halt the de-novo lipid biosynthesis.
# The mobile phase used for the TLC chromatography was n-hexane: diethyl ether: glacial acetic acid (60:45:1).
compound,measurement,setting,value
"COC1CCC2(CC1)NC(=O)C(c1c(C)cc(C)c(C)c1C)=C2O (centres unmarked) [I-A, 4-hydroxy-8-methoxy-3-(2,3,4,6-tetramethylphenyl)-1-azaspiro[4,5]dec-32-en-2-one]",radiolabeled 14C-acetate incorporated into lipids during de-novo synthesis (autoradiograph of TLC plate),"fed for two days, exposure time 2-3 days, FIG. 1b, treated vs control aphids",no labeled lipids are present
same,"lipid composition and lipid content (lipid status after acetate feeding, TLC stained with amido black)","larvae or adults fed for two days with nutrient solution with vs without active ingredient, FIG. 1a lanes 4-6 vs 1-3",No significant differences
